Key:
barnyardgrass [1] = assay: Test A pre-/postemergence herbicide test; format: in vivo, Echinochloa crus-galli
Outline: (§1)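 Pre: seeded sandy loam, directed soil spray, compound in non-phytotoxic solvent + surfactant. Post: 1–2-leaf plants (2–10 cm), sprayed to runoff. Greenhouse ~10 d; visual injury vs untreated, 0–100 scale.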

large crabgrass [2] = assay: Test A pre-/postemergence herbicide test; format: in vivo, Digitaria sanguinalis
Outline: as §1

giant foxtail [3] = assay: Test A pre-/postemergence herbicide test; format: in vivo, Setaria faberi
Outline: as §1

morningglory [4] = assay: Test A pre-/postemergence herbicide test; format: in vivo, Ipomoea spp.
Outline: as §1

redroot pigweed = assay: Test A pre-/postemergence herbicide test; format: in vivo, Amaranthus retroflexus
Outline: as §1

velvetleaf [5] = assay: Test A pre-/postemergence herbicide test; format: in vivo, Abutilon theophrasti
Outline: as §1

barnyardgrass [6] = assay: Test B pre-/postemergence herbicide test; format: in vivo, Echinochloa crus-galli; settings: for Barnyardgrass plant response rating: postemergence
Outline: (§2)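 Test chemicals in a non-phytotoxic solvent mixture with surfactant were applied preemergence to seeded species and postemergence to plants 2-18 cm tall (1- to 4-leaf stage); rice and barnyardgrass were also tested in a flooded paddy at the 2-leaf stage. Visual rating versus controls after 13-15 days in greenhouse, scale 0 (no effect) to 100 (complete control).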

Surinam grass = assay: Test B pre-/postemergence herbicide test; format: in vivo, Urochloa decumbens; settings: for Surinam Grass plant response rating: postemergence
Outline: (§3)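 Visual rating, 0 (no effect) to 100 (complete control), versus untreated controls after 13–15 d in greenhouse. Pre- and postemergence applications (postemergence plants 2–18 cm, 1–4 leaves); flooded paddy arm at 2-leaf stage. Compounds in non-phytotoxic solvent plus surfactant.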

cocklebur = assay: Test B pre-/postemergence herbicide test; format: in vivo, Xanthium strumarium; settings: for Cocklebur plant response rating: postemergence
Outline: as §2

corn = assay: Test B pre-/postemergence herbicide test; format: in vivo, Zea mays; settings: for Corn plant response rating: postemergence
Outline: as §3

large crabgrass [7] = assay: Test B pre-/postemergence herbicide test; format: in vivo, Digitaria sanguinalis; settings: for Crabgrass, Large plant response rating: postemergence
Outline: as §3

giant foxtail [8] = assay: Test B pre-/postemergence herbicide test; format: in vivo, Setaria faberi; settings: for Foxtail, Giant plant response rating: postemergence
Outline: as §3

lambsquarters = assay: Test B pre-/postemergence herbicide test; format: in vivo, Chenopodium album; settings: for Lambsquarters plant response rating: postemergence
Outline: as §3

morningglory [9] = assay: Test B pre-/postemergence herbicide test; format: in vivo, Ipomoea coccinea; settings: for Morningglory plant response rating: postemergence
Outline: as §2

pigweed = assay: Test B pre-/postemergence herbicide test; format: in vivo, Amaranthus retroflexus; settings: for Pigweed plant response rating: postemergence
Outline: as §3

velvetleaf [10] = assay: Test B pre-/postemergence herbicide test; format: in vivo, Abutilon theophrasti; settings: for Velvetleaf plant response rating: postemergence
Outline: as §3

blackgrass = assay: Test B postemergence herbicide test; format: in vivo, Alopecurus myosuroides; settings: postemergence
Outline: (§4)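 Paddy species grown to the 2-leaf stage under flooding; blackgrass sprayed postemergence at 2–18 cm (1- to 4-leaf stage). Plants kept in a greenhouse for 13 to 15 days, then visually rated against controls on 0 (no effect) to 100 (complete control).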

wheat = assay: Test B postemergence herbicide test; format: in vivo, Triticum aestivum; set-up: key to Wheat plant response rating: 0 = no effect, 100 = complete control; settings: postemergence
Outline: (§5)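 Read-out: visual comparison with controls, scored 0 to 100, where 100 means complete control and 0 no effect. Formulated chemicals were applied postemergence to plants 2–18 cm tall (1- to 4-leaf), or to flooded-paddy plants at the 2-leaf stage, then held 13 to 15 days under glass.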

wild oat = assay: Test B postemergence herbicide test; format: in vivo, Avena fatua; settings: postemergence
Outline: as §5

rice = assay: Test B flooded paddy test; format: in vivo, Oryza sativa; settings: 1000 g ai/ha, scale 0 to 100 (0 no effect, 100 complete control)
Outline: as §5

[11] = system: small flower umbrella sedge; assay: Test B flooded paddy test; format: in vivo, Cyperus difformis; settings: 1000 g ai/ha, scale 0 to 100 (0 no effect, 100 complete control)
Outline: as §4

ducksalad = assay: Test B flooded paddy test; format: in vivo, Heteranthera limosa; settings: 1000 g ai/ha, scale 0 to 100 (0 no effect, 100 complete control)
Outline: as §4

barnyardgrass [12] = assay: Test B flooded paddy test; format: in vivo, Echinochloa crus-galli; settings: 1000 g ai/ha, scale 0 to 100 (0 no effect, 100 complete control)
Outline: as §4

[13] = Postemergence, 500 g ai/ha, 0 to 100 scale, 0 no effect, 100 complete control
[14] = Postemergence, 2000 g ai/ha, 0 to 100 scale, 0 no effect, 100 complete control
[15] = Preemergence, 2000 g ai/ha, visual rating, 0 to 100 scale (0 no effect, 100 complete control)
[16] = preemergence, 500 g ai/ha, visual injury, 0 to 100 scale (0 no effect, 100 complete control)
[17] = 125 g ai/ha, 0 = no effect, 100 = complete control, preemergence
[18] = 125 g ai/ha, visual rating, scale 0 (no effect) to 100 (complete control)
[19] = 500 g ai/ha, visual rating, 0 = no effect, 100 = complete control, preemergence
[20] = 500 g ai/ha, scale 0 to 100, 0 is no effect, 100 is complete control
[21] = 125 g ai/ha, 0 is no effect, 100 is complete control, preemergence

## COC(=O)c1cccc(NC(=O)c2cc(C(C)(C)C)nn2C)n1 [Compound 312]
Barnyardgrass [1]; [13]
  Barnyardgrass plant response rating: 0
Barnyardgrass [1]; [14]
  Plant response rating, Barnyardgrass: 0
Barnyardgrass [1]; [15]
  Barnyardgrass plant response rating: 0
Barnyardgrass [1]; [16]
  Barnyardgrass plant response rating: 0
Large crabgrass [2]; [13]
  Crabgrass, Large plant response rating: 0
Large crabgrass [2]; [14]
  Plant response rating, Crabgrass, Large: 0
Large crabgrass [2]; [15]
  Crabgrass, Large plant response rating: 0
Large crabgrass [2]; [16]
  Crabgrass, Large plant response rating: 0
Giant foxtail [3]; [13]
  Foxtail, Giant plant response rating: 0
Giant foxtail [3]; [14]
  Plant response rating, Foxtail, Giant: 0
Giant foxtail [3]; [15]
  Foxtail, Giant plant response rating: 0
Giant foxtail [3]; [16]
  Foxtail, Giant plant response rating: 0
Morningglory [4]; [13]
  Morningglory plant response rating: 0
Morningglory [4]; [14]
  Plant response rating, Morningglory: 0
Morningglory [4]; [15]
  Morningglory plant response rating: 0
Morningglory [4]; [16]
  Morningglory plant response rating: 0
Redroot pigweed; [13]
  Pigweed plant response rating: 0
Redroot pigweed; [14]
  Plant response rating, Pigweed: 0
Redroot pigweed; [15]
  Pigweed plant response rating: 0
Redroot pigweed; [16]
  Pigweed plant response rating: 0
Velvetleaf [5]; [13]
  Velvetleaf plant response rating: 0
Velvetleaf [5]; [14]
  Plant response rating, Velvetleaf: 0
Velvetleaf [5]; [15]
  Velvetleaf plant response rating: 0
Velvetleaf [5]; [16]
  Velvetleaf plant response rating: 0
Barnyardgrass [6]; [17]
  Barnyardgrass plant response rating (0 to 100 scale): 0
Barnyardgrass [6]; [18]
  Barnyardgrass plant response rating: 0
Barnyardgrass [6]; [19]
  Plant response rating, Barnyardgrass: 0
Barnyardgrass [6]; [20]
  Barnyardgrass plant response rating: 0
Surinam grass; [17]
  Surinam Grass plant response rating (0 to 100 scale): 0
Surinam grass; [18]
  Surinam Grass plant response rating: 0
Surinam grass; [19]
  Plant response rating, Surinam Grass: 0
Surinam grass; [20]
  Surinam Grass plant response rating: 0
cocklebur; [17]
  Cocklebur plant response rating (0 to 100 scale): 0
cocklebur; [18]
  Cocklebur plant response rating: 0
cocklebur; [19]
  Plant response rating, Cocklebur: 0
cocklebur; [20]
  Cocklebur plant response rating: 0
corn; [17]
  Corn plant response rating (0 to 100 scale): 0
corn; [18]
  Corn plant response rating: 0
corn; [19]
  Plant response rating, Corn: 0
corn; [20]
  Corn plant response rating: 0
Large crabgrass [7]; [17]
  Crabgrass, Large plant response rating (0 to 100 scale): 0
Large crabgrass [7]; [18]
  Crabgrass, Large plant response rating: 0
Large crabgrass [7]; [19]
  Plant response rating, Crabgrass, Large: 0
Large crabgrass [7]; [20]
  Crabgrass, Large plant response rating: 0
Giant foxtail [8]; [17]
  Foxtail, Giant plant response rating (0 to 100 scale): 0
Giant foxtail [8]; [18]
  Foxtail, Giant plant response rating: 0
Giant foxtail [8]; [19]
  Plant response rating, Foxtail, Giant: 0
Giant foxtail [8]; [20]
  Foxtail, Giant plant response rating: 0
lambsquarters; [17]
  Lambsquarters plant response rating (0 to 100 scale): 0
lambsquarters; [18]
  Lambsquarters plant response rating: 10
lambsquarters; [19]
  Plant response rating, Lambsquarters: 0
lambsquarters; [20]
  Lambsquarters plant response rating: 20
Morningglory [9]; [17]
  Morningglory plant response rating (0 to 100 scale): 0
Morningglory [9]; [18]
  Morningglory plant response rating: 0
Morningglory [9]; [19]
  Plant response rating, Morningglory: 0
Morningglory [9]; [20]
  Morningglory plant response rating: 20
pigweed; [17]
  Pigweed plant response rating (0 to 100 scale): 0
pigweed; [18]
  Pigweed plant response rating: 0
pigweed; [19]
  Plant response rating, Pigweed: 0
pigweed; [20]
  Pigweed plant response rating: 20
Velvetleaf [10]; [18]
  Velvetleaf plant response rating: 0
Velvetleaf [10]; [19]
  Plant response rating, Velvetleaf: 0
Velvetleaf [10]; [20]
  Velvetleaf plant response rating: 0
blackgrass; [18]
  Blackgrass plant response rating: 0
blackgrass; [20]
  Blackgrass plant response rating: 0
wheat; [18]
  Wheat plant response rating: 0
wheat; [20]
  Wheat plant response rating: 0
Wild oat; [18]
  Oat, Wild plant response rating: 0
Wild oat; [20]
  Oat, Wild plant response rating: 0
rice
  Rice plant response rating: 0
[11]
  Sedge, Umbrella plant response rating: 0
ducksalad
  Ducksalad plant response rating: 0
Barnyardgrass [12]
  Barnyardgrass plant response rating: 0

## CCOc1ccc(F)c(NC(=O)c2cc(C(C)(C)C)nn2CC)c1 [Compound 348]
Barnyardgrass [1]; [13]
  Barnyardgrass plant response rating: 0
Barnyardgrass [1]; [14]
  Plant response rating, Barnyardgrass: 0
Barnyardgrass [1]; [15]
  Barnyardgrass plant response rating: 0
Barnyardgrass [1]; [16]
  Barnyardgrass plant response rating: 0
Large crabgrass [2]; [13]
  Crabgrass, Large plant response rating: 0
Large crabgrass [2]; [14]
  Plant response rating, Crabgrass, Large: 0
Large crabgrass [2]; [15]
  Crabgrass, Large plant response rating: 0
Large crabgrass [2]; [16]
  Crabgrass, Large plant response rating: 0
Giant foxtail [3]; [13]
  Foxtail, Giant plant response rating: 0
Giant foxtail [3]; [14]
  Plant response rating, Foxtail, Giant: 0
Giant foxtail [3]; [15]
  Foxtail, Giant plant response rating: 0
Giant foxtail [3]; [16]
  Foxtail, Giant plant response rating: 0
Morningglory [4]; [13]
  Morningglory plant response rating: 0
Morningglory [4]; [14]
  Plant response rating, Morningglory: 0
Morningglory [4]; [15]
  Morningglory plant response rating: 0
Morningglory [4]; [16]
  Morningglory plant response rating: 0
Redroot pigweed; [13]
  Pigweed plant response rating: 0
Redroot pigweed; [14]
  Plant response rating, Pigweed: 0
Redroot pigweed; [15]
  Pigweed plant response rating: 0
Redroot pigweed; [16]
  Pigweed plant response rating: 0
Velvetleaf [5]; [13]
  Velvetleaf plant response rating: 0
Velvetleaf [5]; [14]
  Plant response rating, Velvetleaf: 0
Velvetleaf [5]; [15]
  Velvetleaf plant response rating: 0
Velvetleaf [5]; [16]
  Velvetleaf plant response rating: 0
Barnyardgrass [6]; [21]
  Plant response rating (0 to 100 scale), Barnyardgrass: 0
Barnyardgrass [6]; [18]
  Barnyardgrass plant response rating: 0
Barnyardgrass [6]; [19]
  Plant response rating, Barnyardgrass: 0
Barnyardgrass [6]; [20]
  Barnyardgrass plant response rating: 0
Surinam grass; [21]
  Plant response rating (0 to 100 scale), Surinam Grass: 0
Surinam grass; [18]
  Surinam Grass plant response rating: 0
Surinam grass; [19]
  Plant response rating, Surinam Grass: 0
Surinam grass; [20]
  Surinam Grass plant response rating: 0
cocklebur; [21]
  Plant response rating (0 to 100 scale), Cocklebur: 0
cocklebur; [18]
  Cocklebur plant response rating: 0
cocklebur; [19]
  Plant response rating, Cocklebur: 0
cocklebur; [20]
  Cocklebur plant response rating: 0
corn; [21]
  Plant response rating (0 to 100 scale), Corn: 0
corn; [18]
  Corn plant response rating: 0
corn; [19]
  Plant response rating, Corn: 0
corn; [20]
  Corn plant response rating: 0
Large crabgrass [7]; [21]
  Plant response rating (0 to 100 scale), Crabgrass, Large: 0
Large crabgrass [7]; [18]
  Crabgrass, Large plant response rating: 0
Large crabgrass [7]; [19]
  Plant response rating, Crabgrass, Large: 0
Large crabgrass [7]; [20]
  Crabgrass, Large plant response rating: 0
Giant foxtail [8]; [21]
  Plant response rating (0 to 100 scale), Foxtail, Giant: 0
Giant foxtail [8]; [18]
  Foxtail, Giant plant response rating: 0
Giant foxtail [8]; [19]
  Plant response rating, Foxtail, Giant: 0
Giant foxtail [8]; [20]
  Foxtail, Giant plant response rating: 0
lambsquarters; [21]
  Plant response rating (0 to 100 scale), Lambsquarters: 0
lambsquarters; [18]
  Lambsquarters plant response rating: 0
lambsquarters; [19]
  Plant response rating, Lambsquarters: 0
lambsquarters; [20]
  Lambsquarters plant response rating: 0
Morningglory [9]; [21]
  Plant response rating (0 to 100 scale), Morningglory: 0
Morningglory [9]; [18]
  Morningglory plant response rating: 0
Morningglory [9]; [19]
  Plant response rating, Morningglory: 0
Morningglory [9]; [20]
  Morningglory plant response rating: 0
pigweed; [21]
  Plant response rating (0 to 100 scale), Pigweed: 0
pigweed; [18]
  Pigweed plant response rating: 0
pigweed; [19]
  Plant response rating, Pigweed: 0
pigweed; [20]
  Pigweed plant response rating: 0
Velvetleaf [10]; [21]
  Plant response rating (0 to 100 scale), Velvetleaf: 0
Velvetleaf [10]; [18]
  Velvetleaf plant response rating: 0
Velvetleaf [10]; [20]
  Velvetleaf plant response rating: 0
blackgrass; [18]
  Blackgrass plant response rating: 20
blackgrass; [20]
  Blackgrass plant response rating: 40
wheat; [18]
  Wheat plant response rating: 20
wheat; [20]
  Wheat plant response rating: 20
Wild oat; [18]
  Oat, Wild plant response rating: 20
Wild oat; [20]
  Oat, Wild plant response rating: 30
rice
  Rice plant response rating: 0
[11]
  Sedge, Umbrella plant response rating: 0
ducksalad
  Ducksalad plant response rating: 0
Barnyardgrass [12]
  Barnyardgrass plant response rating: 0

Reference: patent US20060069132A1, “Azolecarboxamide herbicides” (priority 2004, published 2006)
